Several values for one entry are separate records, joined by “and”; a condition that tells them apart may be missing. Equal values may be shown once. No end group written: not given here. *: point of attachment. FITC = O=C1OC2(c3ccc(O)cc3Oc3cc(O)ccc32)c2ccc(NC(=S)*)cc21
Key:
[1] = system: P. berghei (Pb) salivary gland sporozoites; type: cell-based, P. berghei ANKA; details: for killing of GFP-expressing Pb sporozoites (in words): 3-9 independent experiments
Experimental: (§1) To assess the cytotoxic effect of the different peptides on sporozoites, we performed an in vitro assay as previously described. Briefly, sporozoites were incubated at 37 °C for 45 min with different peptides in the presence of 10% fetal calf serum (FCS). Samples were next, incubated for 10 min with 5 µg/mL propidium iodide (PI, Invitrogen, WA, USA) on ice and either imaged in an inverted Axio Observer Z.1 microscope (Zeiss, Oberkochen, Germany) and analyzed using Fiji or diluted 10 times with cold PBS before acquisition on a CytoFLEX S flow cytometer (Beckman Coulter, Brea, CA, USA). For the Pf cytotoxic assay, a final concentration of 0.5 µM cytochalasin D (Sigma-Aldrich) was used in some conditions. Viability was defined as the percentage of GFP+PI- sporozoites to the sum of GFP+PI-, GFP+PI+, and GFP-PI+ sporozoites. Data were analyzed using the CytExpert 2.0 software (Beckman Coulter).
(§2) To evaluate the killing of plasmodial sporozoites by membrane-active molecules, we tested the activity of cationic amphipathic α-helical peptides listed in Figure 1 on P. berghei (Pb), P. yoelii (Py), and P. falciparum (Pf) salivary gland sporozoites in vitro. Quantification of sporozoite death was measured by flow cytometry based on the uptake of propidium iodide (PI), a live cell impermeant nucleic acid fluorescent dye, and/or by the loss of parasite fluorescence following 45 min incubation at 37 °C in PBS 10% fetal calf serum (FCS).

human cells = details: cited from earlier work
Excerpt: Conversely, RT53, which combines the sequences of two basic amphipathic helical peptides (Figure 1B), one capable of translocating into cells and the other containing a heptad leucine repeat domain, which acts as a protein–protein interaction domain [32, 39], was able to kill Pb and Pf sporozoites.

[2] = system: P. falciparum (Pf) salivary gland sporozoites; test: Sporozoite cytotoxicity assay (PI uptake), with or without cytochalasin D; type: cell-based; details: 45 min, 37 °C; for killing of Pf sporozoites (in words): 20 µM peptide, PBS 10% FCS
Experimental: as §1, §2

cancer cells = details: cited from earlier work
Excerpt: (§3) We next tested the killing activity of a series of cationic amphipathic peptides consisting of penetratin (Figure 1, RK16), a cell-penetrating peptide (CPP) derived from the Drosophila melanogaster homeotic protein antennapedia a-helix 3 [25], fused with peptides derived from the a-helix 18 of the antiapoptosis clone 11 (AAC11) also known as Apoptosis Inhibitor 5 protein [26] (Figure 1, RL37, RT39, and RT53).

[3] = system: CD4+ T cells susceptible to HIV infection; details: cited from earlier work
Excerpt: as §3

Pb sporozoites = test: Dynamic microscopy and gliding motility assay of sporozoites; type: cell-based, P. berghei ANKA
Experimental: To visualize the killing of the sporozoites by the peptide, Pb sporozoites expressing mCherry were incubated with 20 μM of RT39 and RT39-FITC. First, 5000 sporozoites were activated in 10% FCS/PBS on an 18-well slide (iBidi, Gräfelfing, Germany). After 5 min, the peptide was added with 1 μM of To-Pro 3 and the sporozoites were immediately recorded for 15–30 min using a spinning-disk confocal system (UltraView ERS, PerkinElmer, Shelton, CT, USA) controlled by Volocity (PerkinElmer), composed of 4 Diode Pumped Solid State Lasers, a Yokogawa Confocal Scanner Unit CSU22, a z-axis piezoelectric actuator, and a Hamamatsu Orca-Flash 4.0 camera mounted on a Axiovert 200 microscope (Zeiss). Time-lapses were analyzed using Fiji.
To assess gliding motility, 5000 sporozoites were resuspended in 10% FCS/PBS in a final volume of 10 µL. The resulting suspension was transferred to an 18-well slide (iBidi) and centrifuged at 400× g for 3 min at 4 °C. The slide was then allowed to equilibrate at 37 °C, 5% CO2 for 3 min in the incubation chamber (Incubation System S, Zeiss) of an inverted epifluorescence wide-field microscope (AxioObserver Z.1, Zeiss) equipped with a LED illumination system (Colibri2, Zeiss), a CCD camera (AxioCam MR, Zeiss), and controlled by the AxioVision software (version 4.8.2.0, Zeiss). After 3 min, a time-lapse movie at a rate of one image per second was recorded for 2 min to control for initial parasite motility. After the 2 min recording, 10 µL of PBS or 20 µM of RT39 were added on top, and the parasites were immediately imaged for 20 min. The average sporozoite velocity at different time points was determined using the MTrack2 plug-in from Fiji.
RT39 induced a fast killing of Pb sporozoites in comparison with anti-CSP antibody as measured by flow cytometry. While 20 µM of the cytotoxic peptide killed most parasites before 5 min of incubation, 10 µg/mL of cytotoxic antibody needed more than 20 min to eliminate the majority of sporozoites (Figure 3A). To better understand the way RT39 is acting on Pb sporozoites, we dynamically imaged the cytotoxic effect of the peptide on fluorescent sporozoites in the presence of To-Pro 3, a live-cell impermeant far-red fluorescent nucleic acid dye. Given its fast-killing kinetics, RT39 was added to a microscopy chamber containing PBS 10% FCS and sporozoites, which were immediately recorded for 20 min at 37 °C. In the presence of FCS, most sporozoites move in a circular way in a substrate-dependent manner. Sporozoite death was assessed by the incorporation of To-Pro 3 and/or by the loss of cytoplasmic fluorescence. Following the addition of RT39 to sporozoites, a lag phase of around 5 min was observed, probably corresponding to the diffusion and peptide binding to sporozoites, after which parasites started to die in quick succession (Figure 3B).

[4] = system: P. berghei (Pb) salivary gland sporozoites; type: cell-based, P. berghei ANKA; details: 20 µM peptide, 37 °C, flow cytometry, n = 2
P. knowlesi oocysts = details: in vivo, at concentrations that start to be toxic to mosquitoes; cited from earlier work
[5] = system: Escherichia coli DH5α (Ec); test: E. coli viability, CFU quantification after incubation with cecropin B; type: cell-based; details: 2 µM cecropin B, 10 min, 37 °C, 10% FCS/PBS, CFU normalised to control; 3-4 independent experiments
Experimental: Escherichia coli DH5α (Ec) were grown at 37 °C under agitation in LB medium at an OD620 of approximately 0.35 (corresponding to 10^8 CFU/mL). After centrifugation and washing with PBS, the equivalent of 10^7 colony-forming units (CFUs)/mL were incubated at 37 °C for 10 min with or without Cecropin B (Sigma-Aldrich) in 10%FCS/PBS at concentrations ranging from 2 to 100 μM. The suspensions of bacteria were diluted 1000× in PBS and 50 µL were spread on LB-agar plates for CFU quantification. Viability was assessed by normalizing the number of CFU to the control group. A sample of E. coli heated at 70 °C for 10 min was used as a death control.
Cecropin B is a prototypical antimicrobial peptide (AMP, Figure 1) discovered in the hemolymph of the Cecropia moth. […] Since our sporozoite killing assay contains 10% FCS, which can inhibit the antimicrobial activity of several AMPs, we first tested the antimicrobial activity of cecropin B in the presence of 10% FCS.

Pf oocysts = details: in vivo, at concentrations that start to be toxic to mosquitoes; cited from earlier work
P. cynomolgi oocysts = details: in vivo, at concentrations that start to be toxic to mosquitoes; cited from earlier work
[6] = system: P. yoelii (Py) salivary gland sporozoites; test: Sporozoite cytotoxicity assay (PI uptake / loss of fluorescence); type: cell-based, P. yoelii 17XNL; details: 100 µM, 45 min incubation, 10% FCS/PBS; 3-4 independent experiments
Experimental: as §1, with “Viability was defined as the percentage of GFP+PI- sporozoites to the sum of GFP+PI-, GFP+PI+, and GFP-PI+ sporozoites.” left out
as §2

[7] = system: P. gallinaceum sporozoites; details: 250 µM; cited from earlier work
Experimental: Many natural antimicrobial peptides (AMPs), such as magainin, cecropin, and defensins, can kill oocysts from different plasmodial species when injected or over-expressed in the insect hemolymph. However, avian-infecting P. gallinaceum sporozoites are resistant to incubation with 250 µM of the AMPs metalnikowin, thanatin, drosocin, and metchnikowin. […] Yet, despite rendering mosquitoes susceptible to Gram-positive bacterial challenge, the k ...

[8] = 20 µM peptide, 45 min, 37 °C, 10% FCS/PBS, flow cytometry

RQIKIWFQNRRMKWKK [RK16, cell-penetrating peptide derived from the Drosophila melanogaster homeotic protein antennapedia a-helix 3, reference compound]
killing of GFP-expressing Pb sporozoites (in words) [1, 8]: did not significantly kill

RQIKIWFQNRRMKWKKAKLNAEKLKDFKIRLQYFARGLQVYIRQLRLALQGKT [RT53]
incubation time at which membrane permeabilization plateaus (human cells): 60 min | membrane permeabilization activity compared with RT39 (human cells): equivalent or higher | Pb sporozoites killed [1, 8]: around 50% | killing of GFP-expressing Pb sporozoites (in words) [1, 8]: able to kill | killing of Pf sporozoites (in words) [2]: able to kill | cell death of cancer cells (cancer cells): elicit the cell death | cell death of CD4+ T cells susceptible to HIV infection [3]: elicit the cell death

RQIKIWFQNRRMKWKKKDFKIRLQYFARGLQVYIRQL [RL37, penetratin fused with a peptide derived from the a-helix 18 of AAC11]
killing of GFP-expressing Pb sporozoites (in words) [1, 8]: did not significantly kill

RQIKIWFQNRRMKWKKLQYFAAGLQVYIRQLRLALQGGKT [RT39M]
Pb sporozoite death compared with RT39 ([1]; 2, 10, 40, 80 μM, 45 min, 37 °C, flow cytometry, n = 3): strongly decreased

RQIKIWFQNRRMKWKKLQYFARGLQVYIRQLRLALQGGKT [RT39, penetratin fused with shorter AAC11 a-helix 18 peptide]
lethality to Pb sporozoites compared with cytotoxic anti-CSP antibody ([1]; 20 µM peptide vs 10 µg/mL anti-PbCSP (3D11), 45 min, 37 °C): as lethal as or more than | time of sudden stop in motility with To-Pro 3 entry and mCherry leakage (Pb sporozoites; 20 µM RT39, exemplified dying sporozoite): ~ 450 s | effect on sporozoite motility (speed) before permeabilization (Pb sporozoites; 20 µM RT39, two-minute analysis of speed at end of lag phase or beginning of death plateau, 2-3 independent experiments): did not significantly impact sporozoite motility | lag phase before parasites start to die (Pb sporozoites; 20 µM RT39 added to sporozoites in PBS 10% FCS, 37 °C, recorded 20 min, microscopy): around 5 min | lethality to Pf sporozoites compared with cytotoxic anti-CSP antibody ([2]; 20 µM peptide vs cytotoxic anti-CSP antibody): as lethal as or more than | killing of Pf sporozoites (in words) [2]: stronger killing activity than RT53 | incubation time at which most Pb sporozoites are killed [4]: < 5 min and 5 min | cell death of cancer cells (cancer cells): elicit the cell death | cell death of CD4+ T cells susceptible to HIV infection [3]: elicit the cell death

cecropin B: cationic amphipathic antimicrobial insect peptide from Hyalophora cecropia, purchased from Sigma-Aldrich (KWKVFKKIEKMGRNIRNGIVKAGPAIAVLGEAKAL; ends and bridges not checked; UniProt P01508 27-61, looked up)
development of P. knowlesi oocysts (P. knowlesi oocysts): inhibit the development | killing of E. coli [5]: efficiently kill | killing of Pb sporozoites ([1]; 100 µM, 45 min incubation, 10% FCS/PBS, 3-4 independent experiments): did not significantly kill | development of Pf oocysts (Pf oocysts): inhibit the development | development of P. cynomolgi oocysts (P. cynomolgi oocysts): inhibit the development | killing of Py sporozoites [6]: did not significantly kill

drosocin
susceptibility of P. gallinaceum sporozoites to incubation [7]: resistant

metchnikowin
susceptibility of P. gallinaceum sporozoites to incubation [7]: resistant

thanatin
susceptibility of P. gallinaceum sporozoites to incubation [7]: resistant

{FITC}-RQIKIWFQNRRMKWKKLQYFARGLQVYIRQLRLALQGGKT [RT39-FITC, FITC-labeled RT39]
Ratio MFI SPZ/Bk of live parasites (Pb sporozoites; 20 µM RT39-FITC in solution, spinning-disk microscopy, 1 μM To-Pro 3, 10% FCS/PBS): ~ 1 | site of membrane permeabilization on the sporozoite body (Pb sporozoites; 20 μM RT39-FITC, 1 μM To-Pro 3, n = 34 sporozoites from 2 independent experiments): frequently occurred at the posterior part of the sporozoite body

Source: paper PMC10974242, “Killing of Plasmodium Sporozoites by Basic Amphipathic α-Helical Fusion Peptides” (Microorganisms, 2024)
